In brackets after ≈: the same amount, converted by molar mass.
Details: for aqueous solubility: pH 6.8

Compound | intrinsic clearance, human liver microsomes [mL/min/kg] | intrinsic clearance, rat liver microsomes [mL/min/kg] | aqueous solubility [µg/mL] | MDR1-MDCK efflux ratio | fraction unbound, human plasma | fraction unbound, rat plasma
Cc1ccn(-c2ccc3[nH]c4c(c3c2)CCCC4=O)n1 | 137 | 512 | 9.65 (≈ 36.4 µM) |  |  | 
C#CCNC(=O)c1cc(C(C)C)nn1CC | ≤ 4.74 | 12.4 | 28.4 (≈ 130 µM) | 0.855 |  | 
COc1ccc(-c2nc(NC(C)C)ncc2-c2ncc[nH]2)cc1 | 26.8 | 1160 |  | 6.39 |  | 
O=C(CC[C@@H]1CCCN2CCCC[C@H]12)NCc1ncc(Cl)cn1 | ≤ 4.74 | 37.6 |  | 33.8 |  | 
COc1ccc(Cc2noc(-c3cccc4c3OCC(=O)N4)n2)cc1 | 18.6 | 148 |  |  |  | 
O=C(CSc1ccc(F)cc1)N1CCCC1 | 9.35 | 117 | 36.2 (≈ 151 µM) | 0.746 |  | 
CS(=O)(=O)CCNc1ccc2ccc(F)cc2n1 | 15.6 | 76.4 | 53.5 (≈ 199 µM) | 0.652 |  | 
CC(C(=O)N1CCc2sccc2C1)N1CCCN(c2ccccc2C#N)CC1 (stereo not drawn) | 2130 | 4230 | 25.6 (≈ 64.9 µM) | 0.871 |  | 
Oc1cccc(CN2CCN(c3ncc(Br)cn3)CC2)c1 | 29.3 | 303 | 4.95 (≈ 14.2 µM) |  |  | 
CC1(CNC(=O)N2CCN(Cc3ccon3)CC2)CCCC1 | 7.42 | 308 |  | 2.07 |  | 
Cc1ccn(CCC(=O)N2CCc3nc4sccc4c(=O)n3CC2)n1 | 17 | 242 |  |  |  | 
O=C1NCCN(C(=O)c2ccncc2)C1c1ccccc1Cl (stereo not drawn) | ≤ 4.74 | 93.1 | 44.2 (≈ 140 µM) | 4.46 | 0.753 | 0.738
C=CC(=O)N1C[C@H](Nc2ncnc3[nH]ccc23)CC[C@@H]1C | ≤ 4.74 | 27.3 | 53.7 (≈ 188 µM) | 65.6 | 0.673 | 0.557
COc1cccc(C)c1C(=O)N[C@H](CO)CCSC | 32.5 | 741 |  | 1.7 |  | 
CNC(=O)CC1CCN(c2ncccn2)CC1 | ≤ 4.74 | ≤ 10.7 | 50 (≈ 213 µM) | 0.823 |  | 
Cc1noc2ncc(C(=O)Nc3nc(C4CC4)cs3)cc12 | 89.9 | 377 | 11.5 (≈ 38.3 µM) | 0.511 |  | 
Brc1cnc(N2CCCN(c3ccccc3)CC2)nc1 | 121 | 5670 |  |  |  | 
Cc1cc(C(=O)O)nn1-c1ccccn1 | ≤ 4.74 | ≤ 10.7 |  |  |  | 
COCCNC(=O)c1ccnc(C2CCNCC2)c1 | ≤ 4.74 | 16.1 |  |  | 1 | 1
O=C(NCC#CCN1CCc2ccccc2C1)NCc1ccc(F)cc1 | 79.7 | 545 | 33.5 (≈ 95.2 µM) | 4 |  | 
Cc1ncc(-c2ccccn2)c(CCNC(=O)C2CCCC2)n1 | 7.32 | 90.7 |  | 7.73 |  | 
N#Cc1ccccc1-c1ccc(-c2nccn2-c2cccnc2)o1 | 87.9 | 719 | 29.7 (≈ 95.2 µM) | 1.48 |  | 
CCn1cc(CN2CCC(c3nc(N(C)C)ncc3-c3ccc(OC)cc3)CC2)c(C)n1 | 158 | 473 | 54 (≈ 124 µM) | 13.3 |  | 
CCc1noc(C2CCC(NCC3CCC(F)(F)CC3)CC2)n1 (stereo not drawn) | 54.4 | 240 | 75.9 (≈ 232 µM) | 2.98 |  | 
Cc1ccc(Cl)c(OC[C@@]2(O)CN(C3CCC3)CC[C@@H]2O)c1 | 166 | 2290 |  | 0.695 |  | 
CN(Cc1n[nH]c2c1CCCC2)c1nccnc1C#N | 39.6 | 1140 | 20.5 (≈ 76.4 µM) | 1.01 |  | 
CN(C)C(=O)CCNc1ccnc2ccc(Cl)cc12 | 6.56 | 73.1 |  |  |  | 
O=C(Cc1cccs1)NCc1ccccc1F | 20.9 | 133 | 34.8 (≈ 140 µM) | 0.641 |  | 
